The text below walks through data of ChEMBL document CHEMBL1201862, “PubChem BioAssay data set” (2004).

The source made the active and inactive calls.

For assay [1], the target named is Lysosomal acid glucosylceramidase (Homo sapiens, UniProt P04062). The experiment in a line: Dose response cell-based high throughput screening assay to identify enhancers of beta-glucosidase activity. [Related pubchem assays: 784 ]. The format is functional.
For assay [2], the target named is T1, Neuropeptide Y receptor type 2 (Homo sapiens, UniProt P49146).
T1 sequence (P49146 whole entry): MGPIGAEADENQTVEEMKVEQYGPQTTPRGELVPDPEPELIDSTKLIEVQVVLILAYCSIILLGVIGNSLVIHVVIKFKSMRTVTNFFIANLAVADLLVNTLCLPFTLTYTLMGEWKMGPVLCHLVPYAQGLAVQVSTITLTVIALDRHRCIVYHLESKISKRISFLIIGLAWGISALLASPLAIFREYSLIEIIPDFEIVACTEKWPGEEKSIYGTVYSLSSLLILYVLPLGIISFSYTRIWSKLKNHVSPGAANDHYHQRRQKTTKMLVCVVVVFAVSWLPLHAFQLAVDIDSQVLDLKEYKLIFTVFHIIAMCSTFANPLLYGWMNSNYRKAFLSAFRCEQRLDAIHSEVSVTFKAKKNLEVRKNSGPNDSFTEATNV
The experiment in a line: Fluorescence-based counterscreen for agonists of NPY-Y1: cell-based high-throughput dose response assay for agonists of NPY-Y2. It is filed as functional.

Another assay deals with HEK293. Kind of assay: Fluorescence-based counterscreen for potentiators or agonists of NPY-Y1: cell-based high-throughput dose response assay for inhibitors of cyclic nucleotide gated ion channel (CNGC) activity. In this assay, the parental HEK293 cell line transfected with a cyclic-nucleotide gated ion channel (CNGC)-based cAMP sensor is used to measure inhibition of isoproterenol-induced CNGC …. It is filed as functional. The following applies: Homo sapiens. In general terms: Counterscreens check selectivity or assay interference.

Assay [3] has as its target T2, Neuropeptide Y receptor type 1 (Homo sapiens, UniProt P25929).
T2 sequence (P25929 whole entry): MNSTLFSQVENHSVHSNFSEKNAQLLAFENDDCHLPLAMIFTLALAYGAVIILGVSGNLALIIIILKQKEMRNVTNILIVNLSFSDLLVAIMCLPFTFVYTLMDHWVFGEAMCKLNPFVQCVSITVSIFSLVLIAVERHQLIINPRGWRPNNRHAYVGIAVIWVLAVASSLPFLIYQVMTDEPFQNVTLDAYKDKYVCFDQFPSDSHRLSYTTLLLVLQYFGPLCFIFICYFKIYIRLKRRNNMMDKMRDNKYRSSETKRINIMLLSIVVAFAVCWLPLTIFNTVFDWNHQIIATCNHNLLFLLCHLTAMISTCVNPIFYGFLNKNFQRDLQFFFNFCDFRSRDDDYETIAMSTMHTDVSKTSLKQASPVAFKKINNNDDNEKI
The experiment in a line: Fluorescence-based dose response cell-based high-throughput screening assay for agonists of NPY-Y1. [Related pubchem assays: 1697 (Screening assay (NPY-Y1 agonists).), 1359 (Screening assay (NPY-Y2 potentiators or agonists).), 1304 (Screening assay (NPY-Y1 potentiators or agonists).), 1704 (Screening assay (CNGC inhibitors).), 1791 (Summary AID.)]. It is filed as functional.

Assay [4] concerns the target T3, Tyrosine-protein phosphatase non-receptor type 7 (Homo sapiens, UniProt P35236).
T3 sequence (P35236 whole entry): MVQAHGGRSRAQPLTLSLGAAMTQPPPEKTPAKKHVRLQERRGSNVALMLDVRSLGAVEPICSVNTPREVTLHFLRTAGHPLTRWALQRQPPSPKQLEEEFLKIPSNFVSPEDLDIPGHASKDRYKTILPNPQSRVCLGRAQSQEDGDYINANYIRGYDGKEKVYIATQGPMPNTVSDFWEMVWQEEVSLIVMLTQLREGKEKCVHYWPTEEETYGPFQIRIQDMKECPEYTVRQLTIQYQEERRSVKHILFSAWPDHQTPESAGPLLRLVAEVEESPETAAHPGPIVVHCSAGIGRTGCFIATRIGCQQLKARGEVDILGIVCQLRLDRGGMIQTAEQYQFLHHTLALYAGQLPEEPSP
The experiment in a line: inhibition of hematopoietic tyrosine phosphatase HePTP – biochemical, set 2, SAR follow-up (AID 449736). The format is functional.

For assay [5], the target named is T4, Low molecular weight phosphotyrosine protein phosphatase (Homo sapiens, UniProt P24666).
T4 sequence (P24666 whole entry): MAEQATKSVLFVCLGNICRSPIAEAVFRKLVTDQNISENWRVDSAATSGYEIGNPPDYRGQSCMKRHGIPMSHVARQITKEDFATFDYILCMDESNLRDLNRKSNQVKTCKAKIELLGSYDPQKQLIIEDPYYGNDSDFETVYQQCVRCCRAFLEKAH
The format is functional. The following applies: read-out: IC50_Mean.

Assay [6] addresses T5, Dual specificity protein phosphatase 3 (Homo sapiens, UniProt P51452). Kind of assay: SAR VHR1 absorbance Assay for In Vitro dose response studies. [Related pubchem assays (depositor defined):AID1654, AID1661, AID1878, AID1992, AID2004].
Assay [7] concerns the target T6, Small ubiquitin-related modifier 1 (Homo sapiens, UniProt P63165). Kind of assay: SUMO1 protein-protein binding blockers, potency – biochemical, FRET, dose response (AID 624383). The format is functional. The following applies: read-out: IC50_Mean.
In assay [8] the target is T7, Dual specificity protein phosphatase 6 (Rattus norvegicus, UniProt Q64346).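 Also: confirmatory in vitro dose-response testing of MKP-3 inhibition; recombinant His-tagged MKP-3 made in E. coli BL21 with OMFP substrate.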
T7 sequence (Q64346 whole entry): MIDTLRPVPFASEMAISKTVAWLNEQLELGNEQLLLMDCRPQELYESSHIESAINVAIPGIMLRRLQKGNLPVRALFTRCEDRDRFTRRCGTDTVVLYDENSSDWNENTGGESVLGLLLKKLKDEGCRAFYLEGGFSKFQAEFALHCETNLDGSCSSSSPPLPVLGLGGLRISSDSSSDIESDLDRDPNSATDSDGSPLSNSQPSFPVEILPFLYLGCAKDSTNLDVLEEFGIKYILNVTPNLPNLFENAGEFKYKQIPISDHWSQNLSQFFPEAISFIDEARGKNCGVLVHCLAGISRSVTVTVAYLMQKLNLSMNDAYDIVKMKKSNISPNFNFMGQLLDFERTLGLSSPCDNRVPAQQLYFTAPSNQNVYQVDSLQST
It is filed as functional.

Assay [9] concerns the target T6, Small ubiquitin-related modifier 1. Kind of assay: SUMO1 protein interaction blockers, potency – biochemical, fluorescence polarization, uHTS hits, dose response (AID 624382). The format is functional. Conditions: read-out: IC50_Mean. On the technique in general: Fluorescence polarisation rises when a labelled molecule tumbles more slowly, as on binding a larger partner.

Assay [10] deals with T5, Dual specificity protein phosphatase 3. Kind of assay: SAR VHR1 Fluorescent Assay for In Vitro dose response studies. [Related pubchem assays (depositor defined):AID1654, AID1661, AID1878, AID1992, AID2004, AID2070, AID2085]. The format is functional.
For assay [11] the target is unchanged. Kind of assay: MOA VHR1 Fluorescent secondary assay for identification of redox-state modulating compounds. [Related pubchem assays (depositor defined):AID1654, AID1661, AID1878, AID1957].
The target in assay [12] is Tyrosine-protein phosphatase non-receptor type 12 (Homo sapiens, UniProt Q05209). The experiment in a line: SAR Selectivity Analysis of small molecule inhibitors of PEST using pCAP in a fluorescence assay. [Related pubchem assays (depositor defined):AID1779, AID1784, AID2135]. The format is functional.
Assay [13] has as its target T8, Tyrosine-protein phosphatase non-receptor type 22 (Homo sapiens, UniProt Q9Y2R2).
T8 sequence (Q9Y2R2 whole entry): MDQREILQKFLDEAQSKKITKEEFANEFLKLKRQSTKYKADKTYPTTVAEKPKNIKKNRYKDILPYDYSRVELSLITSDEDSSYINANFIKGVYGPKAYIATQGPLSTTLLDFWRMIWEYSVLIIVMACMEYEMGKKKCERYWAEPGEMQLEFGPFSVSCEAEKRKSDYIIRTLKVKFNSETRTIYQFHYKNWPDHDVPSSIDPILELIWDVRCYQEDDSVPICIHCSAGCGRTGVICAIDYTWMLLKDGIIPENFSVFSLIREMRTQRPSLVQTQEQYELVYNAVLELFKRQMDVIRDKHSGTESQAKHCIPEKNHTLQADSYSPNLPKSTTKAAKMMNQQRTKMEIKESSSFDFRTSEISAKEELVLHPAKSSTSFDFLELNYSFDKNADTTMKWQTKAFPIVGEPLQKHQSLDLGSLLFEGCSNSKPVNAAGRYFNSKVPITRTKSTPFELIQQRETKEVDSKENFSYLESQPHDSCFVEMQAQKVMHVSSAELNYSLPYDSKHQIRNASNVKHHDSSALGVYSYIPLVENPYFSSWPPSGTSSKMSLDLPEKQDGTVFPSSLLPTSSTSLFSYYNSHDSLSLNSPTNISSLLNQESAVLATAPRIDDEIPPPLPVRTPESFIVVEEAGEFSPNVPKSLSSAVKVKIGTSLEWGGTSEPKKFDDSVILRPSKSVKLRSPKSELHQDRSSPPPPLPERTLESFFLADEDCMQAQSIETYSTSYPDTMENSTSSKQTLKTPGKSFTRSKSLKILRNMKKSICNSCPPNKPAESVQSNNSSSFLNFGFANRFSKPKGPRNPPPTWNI
Kind of assay: SAR LYP1 Fluorescent Assay using OMFP substrate for In Vitro dose response studies - Set 3. [Related pubchem assays (depositor defined):AID1779, AID1784, AID2140, AID2686]. The format is functional.

Assay [14] addresses T8, Tyrosine-protein phosphatase non-receptor type 22. The experiment in a line: PTPN22 enzyme inhibitors – biochemical, fluorescence, LYP catalytic domain, selectivity assay for LMPTP inhibitor project, dose response (AID 652006). It is filed as functional. Conditions: read-out: IC50_Mean.
For assay [15] the target is unchanged. The experiment in a line: inhibition of lymphoid tyrosine phosphatase LYP – biochemical, pCAP fluorogenic substrate, fluorescence, set 3, SAR follow-up (AID 449727). It is filed as functional.
For assay [16], the target named is T3, Tyrosine-protein phosphatase non-receptor type 7. Kind of assay: redox-active compounds inhibiting HePTP phosphatase – biochemical, fluorescence, mechanism study (AID 2068). The format is functional.
The target of assay [17] is T4, Low molecular weight phosphotyrosine protein phosphatase. It is filed as functional. The following applies: read-out: IC50_Mean. The source holds these as a separate data set.
Assay [18] deals with Acyl-homoserine lactone acylase PvdQ (Pseudomonas aeruginosa (strain LESB58), UniProt Q9I194). Kind of assay: PvdQ acylase enzyme activity blockers – biochemical, fluorescence, plate reader and imaging, cherry-picks, dose response (AID 493231).
Acyl-homoserine lactone acylase PvdQ, sequence (Q9I194 24-193 limits assumed): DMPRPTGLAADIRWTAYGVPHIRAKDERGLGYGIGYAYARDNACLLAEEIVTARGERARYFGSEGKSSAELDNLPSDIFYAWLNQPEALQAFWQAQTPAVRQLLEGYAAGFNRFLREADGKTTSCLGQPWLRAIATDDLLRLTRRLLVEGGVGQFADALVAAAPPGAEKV
Acyl-homoserine lactone acylase PvdQ, sequence (Q9I194 217-762 limits assumed): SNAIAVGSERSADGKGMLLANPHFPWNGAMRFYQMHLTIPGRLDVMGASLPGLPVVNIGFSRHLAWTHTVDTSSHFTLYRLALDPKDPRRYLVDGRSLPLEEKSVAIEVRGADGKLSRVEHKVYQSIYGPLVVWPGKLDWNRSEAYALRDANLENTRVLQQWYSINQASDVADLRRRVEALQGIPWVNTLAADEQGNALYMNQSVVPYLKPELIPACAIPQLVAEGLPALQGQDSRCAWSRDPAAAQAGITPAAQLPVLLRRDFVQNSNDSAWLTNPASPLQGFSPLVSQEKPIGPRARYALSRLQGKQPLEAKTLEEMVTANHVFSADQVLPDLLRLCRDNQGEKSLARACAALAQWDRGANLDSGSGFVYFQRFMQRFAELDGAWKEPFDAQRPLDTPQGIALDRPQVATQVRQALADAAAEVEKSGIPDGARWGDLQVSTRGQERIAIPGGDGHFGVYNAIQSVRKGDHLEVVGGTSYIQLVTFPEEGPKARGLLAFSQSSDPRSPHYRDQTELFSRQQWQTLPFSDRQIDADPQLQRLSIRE

T5 sequence (P51452 whole entry): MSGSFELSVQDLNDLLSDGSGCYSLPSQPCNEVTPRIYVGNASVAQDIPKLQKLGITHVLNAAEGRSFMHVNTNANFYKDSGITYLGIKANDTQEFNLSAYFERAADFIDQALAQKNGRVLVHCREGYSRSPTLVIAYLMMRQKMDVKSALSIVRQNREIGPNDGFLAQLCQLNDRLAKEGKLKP
T6 sequence (P63165 whole entry): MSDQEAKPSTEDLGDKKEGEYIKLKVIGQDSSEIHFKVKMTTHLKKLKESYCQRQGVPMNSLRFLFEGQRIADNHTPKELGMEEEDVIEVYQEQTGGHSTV
Lysosomal acid glucosylceramidase, sequence (P04062 whole entry): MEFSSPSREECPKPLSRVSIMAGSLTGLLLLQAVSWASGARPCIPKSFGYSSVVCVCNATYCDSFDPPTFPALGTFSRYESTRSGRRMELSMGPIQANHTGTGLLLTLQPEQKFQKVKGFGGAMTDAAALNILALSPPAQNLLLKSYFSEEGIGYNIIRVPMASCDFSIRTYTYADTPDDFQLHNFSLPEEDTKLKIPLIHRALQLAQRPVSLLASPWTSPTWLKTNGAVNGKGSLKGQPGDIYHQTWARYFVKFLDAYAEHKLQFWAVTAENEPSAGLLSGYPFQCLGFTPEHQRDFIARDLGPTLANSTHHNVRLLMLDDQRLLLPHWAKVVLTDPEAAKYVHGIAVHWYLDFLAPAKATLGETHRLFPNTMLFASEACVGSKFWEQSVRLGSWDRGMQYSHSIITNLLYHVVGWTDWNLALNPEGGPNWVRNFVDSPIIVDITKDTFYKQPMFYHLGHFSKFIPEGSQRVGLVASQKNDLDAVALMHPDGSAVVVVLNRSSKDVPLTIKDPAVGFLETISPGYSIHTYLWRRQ
Tyrosine-protein phosphatase non-receptor type 12, sequence (Q05209 whole entry): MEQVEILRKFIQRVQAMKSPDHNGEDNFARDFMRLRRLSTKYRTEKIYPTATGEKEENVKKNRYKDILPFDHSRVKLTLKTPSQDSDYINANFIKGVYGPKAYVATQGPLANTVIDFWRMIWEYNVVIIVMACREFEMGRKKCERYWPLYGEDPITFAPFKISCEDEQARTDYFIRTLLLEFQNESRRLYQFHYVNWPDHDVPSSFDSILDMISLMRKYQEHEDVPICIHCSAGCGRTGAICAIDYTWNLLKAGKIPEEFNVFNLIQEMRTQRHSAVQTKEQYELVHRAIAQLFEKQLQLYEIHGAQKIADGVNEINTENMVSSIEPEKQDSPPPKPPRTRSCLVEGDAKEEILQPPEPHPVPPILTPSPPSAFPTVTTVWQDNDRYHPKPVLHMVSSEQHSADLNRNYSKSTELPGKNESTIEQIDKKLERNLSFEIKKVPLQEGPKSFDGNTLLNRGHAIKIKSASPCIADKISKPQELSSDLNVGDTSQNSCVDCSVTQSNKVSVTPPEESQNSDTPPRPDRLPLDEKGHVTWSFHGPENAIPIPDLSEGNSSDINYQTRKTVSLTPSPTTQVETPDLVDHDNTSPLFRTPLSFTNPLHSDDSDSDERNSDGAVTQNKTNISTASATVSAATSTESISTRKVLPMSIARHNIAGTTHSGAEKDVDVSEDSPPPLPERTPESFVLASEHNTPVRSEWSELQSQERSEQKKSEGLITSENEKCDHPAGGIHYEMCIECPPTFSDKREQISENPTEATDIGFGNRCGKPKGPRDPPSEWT

As a reminder, the EC50 is the concentration giving half of the maximal effect. On to `O=C(OCCN1CCCCC1)c1cc2ccccc2o1`, for which, in assay [1], the EC50 was > 10 µM (not active).

With `Oc1ccccc1Cn1c(-c2ccccc2O)nc2ccccc21`, the EC50 in assay [2] is recorded as 24.7 µM (not active); in [3] it was 15.6 µM (not active). The IC50 in the assay on HEK293 is given as 14.3 µM (not active).

For the molecule `CCOC(=O)C1=C(C)N=c2sc(=Cc3ccc(OCC(=O)O)cc3)c(=O)n2C1c1ccc(SC)cc1` (centres undefined), the IC50 is 0.684 µM (active) in assay [4]; 14.6 µM (active) in assay [5]; 3.14 µM (active) in assay [6]; 9.68 µM (active) in assay [7]; 18.9 µM (active) in assay [8]; > 66.6 µM (inactive) in assay [9]. The IC50 in [10] was 7.7 µM (active); in assay [11], 2.01 µM (active); in [12] it was 2.52 µM (active); in [13], 5.06 µM (active); in assay [14], 16.2 µM (active); in assay [15] it was 5.14 µM (active). Besides, the results for the IC50 in assay [16] and in assay [17] were 0.537 µM (active) and 52.8 µM (inactive), respectively.

As a reminder, the AC50 is the concentration at which the activity in the assay is half-maximal. With `O=C1C=C(c2ccccc2C(F)(F)F)C[C@@H](c2ccc3c(c2)OCO3)C1`, the AC50 in assay [18] is > 100 µM (inactive).
